In this experiment the test system is 292921-168-R-J2-PDC complex spheroid viability. The experiment is described as follows: Anticancer human tumor 292921-168-R-J2-PDC patient-derived pancreatic carcinoma cell line growth inhibition. The settings on record: for viability, T/C: stronger effect = lower value. The text has this: Multicellular complex tumor spheroid response to LSD1 Inhibitor Iadademstat in combination with a variety of drugs and investigational agents in selected tumor cell lines
The current study was undertaken to assess response to LSD1 inhibitors in combination with standard-of-care drugs and investigational agents in solid tumor complex spheroid models as well as in the K-562 leukemia. Complex spheroids include a stromal component modeled by human endothelial cells (HUVEC) and fibroblasts modeled by human mesenchymal stem cells (MSCs). The concentration ranges selected for each drug and investigational agent were based upon clinically achievable concentrations if the clinical Cmax of the agent was known.
Compounds. The drugs and investigational agents used in this study are listed on Table 1. All of the agents used, including staurosporine (NSC755774) and gemcitabine (NSC613327), were obtained from the Developmental Therapeutics Program, NCI. FDA-approved anticancer drugs are available from the NCI at http://dtp.nci.nih.gov/branches/dscb/oncology_drugset_explanation.html. Drugs and investigational agents were >95% pure by proton nuclear magnetic resonance (NMR) and liquid chromatography/mass spectrometry (LC/MS). Stock solutions were prepared at 400x in DMSO, stored at -70 degrees C, and diluted in fresh medium prior to their use. The final concentration of DMSO in cell culture wells never exceeded 0.25% (v/v). The FDA-approved anticancer drug set is available from the Developmental Therapeutics Program at https://dtp.cancer.gov/organization/dscb/obtaining/available_plates.htm. All drugs and investigational agents were tested over a range starting from a high concentration at or near the clinical Cmax and decreasing in half-log increments. If the clinical Cmax for an agent had not been determined, the highest concentration tested was 10 microM.
Cell Lines. The patient-derived cancer cell (PDC) lines: 292921-168-R-J2-PDC, K24384-001-R-PDC, and 521955-158-R2-J5-PDC pancreatic carcinomas, 556581-035-R-J1 ovarian carcinoma, 324938-238-R-J1-PDC, 855422-203-R-J1-PDC and 883617-216-R-J1-PDC urothelial bladder carcinomas, 743489-274-T-PDC renal cell carcinoma, 138582-R-J1 Merkel cell tumor, K60290-347-R-J1 and K57222-313-R-J1-PDC glioblastomas, 653999-131-R-J2-PDC, LG0703-F948-PDC, and 349418-098-R-PDC non-small cell lung carcinomas, 885512-296-R-J2-PDC, 171881-019-R-J1-PDC breast carcinomas and 186277-243-T-J2-PDC and 233499-124-R-J2-PDC colon carcinomas were obtained from the NCI Patient-Derived Models Repository (PDMR, https://pdmr.cancer.gov). The established cell lines NCI/ADR-RES (RRID:CVCL_14520 and OVCAR-5 (RRID:CVCL_1628) ovarian carcinomas, 786-O (RRID:CVCL_1051) and A498 (RRID:CVCL_A498) renal cell carcinoma, NCI-H211 (ATCC, cat. CRL-5824; RRID:CVCL_1529), NCI-H196 (ATCC, cat. CRL-5823, RRID:CVCL_1509), SW 1271 (ATCC, cat. CRL-2177, RRID:CVCL_1716) and NCI-H1876 (ATCC, cat. CRL-5902, RRID:CVCL_1503) small cell lung carcinomas, MDA-MB-231 (RRID:CVCL_0062) and MDA-MB-468 (RRID:CVCL_0419)breast carcinomas (10-12). Pooled donor human umbilical vein endothelial cells (HUVEC, Lonza, cat. CC-2519) and human mesenchymal stem cells (hMSC, Lonza, cat. PT-2501) were purchased from Lonza (Walkersville, MD).
Cell Culture. All cells were maintained in an incubator at 37 degrees C and 5% CO2 with 95% humidity. The PDC lines were cultured according to standard operating procedures established by the NCI PDMR (https://pdmr.cancer.gov). Briefly all PDCs were thawed and cultured in Matrigel-coated flasks prepared with a working solution of 1X Ham's F-12 nutrient mix, without supplementation (Invitrogen, Waltham, MA, cat. 11765054), 100 U/mL penicillin-streptomycin (Invitrogen, cat. 15140122), and 2.5% Matrigel (Corning Inc., Corning, NY, cat. 354248) for the first three passages. […]

Several values for one entry are separate records, joined by “and”; a condition that tells them apart may be missing. Equal values may be shown once. Bounds are passed on as bounds.
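Also: seven day compound exposure before luminescent viability read.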

As a reminder, the IC50 is the concentration needed to halve the response being measured. As a reminder, the viability, T/C is the result in the treated group divided by that in the control group, in per cent. Consider `Nc1ccn(C2OC(CO)C(O)C2(F)F)c(=O)n1` (configuration not stated) + NC1CCC(NC2CC2c2ccccc2)CC1, for which the IC50 (curve of first compound, second compound 0.1 µM) was less than 0.949 nM; the half-maximal inhibitory concentration (IC50) (curve of first compound, second compound 0.316 µM) was less than 0.949 nM; the IC50 (curve of first compound, second compound 1 µM) is less than 0.949 nM; the IC50 (curve of first compound, second compound 3.16 µM) is less than 0.949 nM; the IC50 (curve of first compound, second compound 10 µM) is less than 0.949 nM. In addition, the viability, T/C (second compound 0.1 µM, first compound 0.000949 µM) was 27.8%; the viability, T/C (second compound 0.1 µM, first compound 0.003 µM) is 9.83%; the viability, T/C (second compound 0.1 µM, first compound 0.00949 µM) is 8.07%; the viability, T/C (second compound 0.1 µM, first compound 0.03 µM) is 6.88%; the viability, T/C (second compound 0.1 µM, first compound 0.0949 µM) is 7.25%; the viability, T/C (second compound 0.1 µM, first compound 0.3 µM) was 6.85%. Besides, the viability, T/C (second compound 0.316 µM, first compound 0.000949 µM) is 28.2%; the viability, T/C (second compound 0.316 µM, first compound 0.003 µM) was 11.6%; the viability, T/C (second compound 0.316 µM, first compound 0.00949 µM) was 6.99%; the viability, T/C (second compound 0.316 µM, first compound 0.03 µM) is 6.4%; the viability, T/C (second compound 0.316 µM, first compound 0.0949 µM) was 8.06%; the viability, T/C (second compound 0.316 µM, first compound 0.3 µM) was 7.6%. Besides, the viability, T/C is, setting by setting: (second compound 1 µM, first compound 0.000949 µM) 21.8%; (second compound 1 µM, first compound 0.003 µM) 10.7%; (second compound 1 µM, first compound 0.00949 µM) 8.29%; (second compound 1 µM, first compound 0.03 µM) 7.78%; (second compound 1 µM, first compound 0.0949 µM) 8.71%; (second compound 1 µM, first compound 0.3 µM) 7.52%. For the same molecule, the viability, T/C (second compound 3.16 µM, first compound 0.000949 µM) is 22.2%; the viability, T/C (second compound 3.16 µM, first compound 0.003 µM) is 10.4%; the viability, T/C (second compound 3.16 µM, first compound 0.00949 µM) is 8.35%; the viability, T/C (second compound 3.16 µM, first compound 0.03 µM) was 7.52%; the viability, T/C (second compound 3.16 µM, first compound 0.0949 µM) is 8.12%; the viability, T/C (second compound 3.16 µM, first compound 0.3 µM) is 8.1%. Further, the viability, T/C (second compound 10 µM, first compound 0.000949 µM) was 23.4%; the viability, T/C (second compound 10 µM, first compound 0.003 µM) was 10.2%; the viability, T/C (second compound 10 µM, first compound 0.00949 µM) is 9%; the viability, T/C (second compound 10 µM, first compound 0.03 µM) was 9.62%; the viability, T/C (second compound 10 µM, first compound 0.0949 µM) was 8.3%; the viability, T/C (second compound 10 µM, first compound 0.3 µM) was 9.08%.

In the case of `COc1ccc([C@@H](O)c2cc(-c3ncnc4cc(N5CCOCC5)ccc34)c(F)cc2Cl)nn1`, the viability, T/C was 101% and 104% (compound 0.0316 µM); 95.7% and 82.2% (compound 0.1 µM); 61.2% and 71.4% (compound 0.316 µM); 37.6% and 42.1% (compound 1 µM); 24.7% and 24.6% (compound 3.16 µM); 11.6% and 13.1% (compound 10 µM). In addition, the IC50 (curve of compound) was 590 nM and 738 nM.

The record behind these values is PubChem BioAssay AID1918934 (Molecular Pharmacology Branch, DTP, NCI, 2023).
